Experimental data published in ChEMBL document CHEMBL1201862, “PubChem BioAssay data set” (2004).
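Method: 48-hour compound exposure of cells in 96-well plates, five concentrations, linear interpolation of endpoints. Here, GI50 denotes the concentration required for 50% inhibition of growth.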 Activity calls are given as the source filed them. Cut-off read from the data, not from the text of the source: active = GI50 up to about 1.1 µM and inactive = higher.

Key:
Assay in all cases: DTP human tumour cell line panel, 48 h
SR = tested on: SR
M14 = tested on: M14
IGROV-1 = tested on: IGROV-1
NCI-H460 = tested on: NCI-H460
EKVX = tested on: EKVX
Malme-3M = tested on: Malme-3M
LOX IMVI = tested on: LOX IMVI
CAKI-1 = tested on: CAKI-1
SK-MEL-28 = tested on: SK-MEL-28
SK-OV-3 = tested on: SK-OV-3
NCI-H522 = tested on: NCI-H522
A498 = tested on: A498
OVCAR-4 = tested on: OVCAR-4
SF-295 = tested on: SF-295
CCRF-CEM = tested on: CCRF-CEM
HOP-92 = tested on: HOP-92
HCC 2998 = tested on: HCC 2998
SN12C = tested on: SN12C
DU-145 = tested on: DU-145

Structure (SMILES)	GI50 (SR)	GI50 (M14)	GI50 (IGROV-1)	GI50 (NCI-H460)	GI50 (EKVX)	GI50 (Malme-3M)	GI50 (LOX IMVI)	GI50 (CAKI-1)	GI50 (SK-MEL-28)	GI50 (SK-OV-3)	GI50 (NCI-H522)	GI50 (A498)	GI50 (OVCAR-4)	GI50 (SF-295)	GI50 (CCRF-CEM)	GI50 (HOP-92)	GI50 (HCC 2998)	GI50 (SN12C)	GI50 (DU-145)
CCN(CC)CCNc1ccc(C)c2sc3ccc(O)cc3c(=O)c12	0.0149 µM (active)	1.19 µM (inactive)	1.23 µM (inactive)	< 0.0128 µM (active)	10.2 µM (inactive)	1.15 µM (inactive)	0.711 µM (active)	5.73 µM (inactive)	1.49 µM (inactive)	1.52 µM (inactive)	1.28 µM (inactive)	1.33 µM (inactive)	2.7 µM (inactive)	0.27 µM (active)	0.0991 µM (active)	1.87 µM (inactive)	1.36 µM (inactive)	0.594 µM (active)	–
NC(CCCC(N)P(=O)(O)c1ccccc1)P(=O)(O)c1ccccc1 (stereo unspecified)	> 261 µM (inactive)	> 261 µM (inactive)	> 261 µM (inactive)	> 261 µM (inactive)	> 261 µM (inactive)	> 261 µM (inactive)	> 261 µM (inactive)	–	> 261 µM (inactive)	> 261 µM (inactive)	> 261 µM (inactive)	> 261 µM (inactive)	> 261 µM (inactive)	> 261 µM (inactive)	> 261 µM (inactive)	> 261 µM (inactive)	> 261 µM (inactive)	> 261 µM (inactive)	–
CC1CC/C(=C\c2ccc(F)cc2)C2=C1C(c1ccc(F)cc1)n1c(s/c(=C\c3ccc(Cl)cc3)c1=O)=N2 (stereo unspecified)	–	> 100 µM (inactive)	> 100 µM (inactive)	–	> 100 µM (inactive)	–	> 100 µM (inactive)	> 100 µM (inactive)	> 100 µM (inactive)	> 100 µM (inactive)	–	> 100 µM (inactive)	> 100 µM (inactive)	–	> 100 µM (inactive)	> 100 µM (inactive)	–	> 100 µM (inactive)	> 100 µM (inactive)
O=C1C(=O)C2(CC1S(=O)(=O)c1ccccc1)c1ccccc1-c1ccccc12 (stereo unspecified)	24 µM (inactive)	13.9 µM (inactive)	23.1 µM (inactive)	18.6 µM (inactive)	28.8 µM (inactive)	> 10 µM (inactive)	18.5 µM (inactive)	29 µM (inactive)	19.7 µM (inactive)	38.9 µM (inactive)	22.5 µM (inactive)	19.1 µM (inactive)	48.9 µM (inactive)	21.3 µM (inactive)	24.7 µM (inactive)	–	14.7 µM (inactive)	28.8 µM (inactive)	–
Oc1ccc2ccccc2c1OCc1nnc(CCCCCCCCc2nnc(COc3c(O)ccc4ccccc34)o2)o1	–	> 100 µM (inactive)	> 100 µM (inactive)	> 100 µM (inactive)	> 100 µM (inactive)	> 100 µM (inactive)	–	67 µM (inactive)	> 100 µM (inactive)	> 100 µM (inactive)	> 100 µM (inactive)	> 100 µM (inactive)	> 100 µM (inactive)	> 100 µM (inactive)	–	> 100 µM (inactive)	> 100 µM (inactive)	> 100 µM (inactive)	> 100 µM (inactive)
COc1ccc(NC(=O)CC(=O)N/N=C/c2ccc(N(CCC#N)S(C)(=O)=O)cc2)cc1	3.33 µM (inactive)	> 100 µM (inactive)	> 100 µM (inactive)	> 100 µM (inactive)	> 100 µM (inactive)	> 100 µM (inactive)	> 100 µM (inactive)	> 100 µM (inactive)	> 100 µM (inactive)	> 100 µM (inactive)	> 100 µM (inactive)	> 100 µM (inactive)	> 100 µM (inactive)	> 100 µM (inactive)	> 100 µM (inactive)	–	> 100 µM (inactive)	> 100 µM (inactive)	–
c1cc2c(ncc3cscc32)s1	> 100 µM (inactive)	> 100 µM (inactive)	> 31.6 µM (inactive)	> 100 µM (inactive)	> 100 µM (inactive)	> 100 µM (inactive)	> 49.5 µM (inactive)	> 72.4 µM (inactive)	> 100 µM (inactive)	> 10 µM (inactive)	> 100 µM (inactive)	51.1 µM (inactive)	> 100 µM (inactive)	> 100 µM (inactive)	> 100 µM (inactive)	> 100 µM (inactive)	> 100 µM (inactive)	> 100 µM (inactive)	> 100 µM (inactive)
C=C1c2nc3ccccc3n2C=C(c2ccc(Cl)cc2)N1c1ccc(OC)cc1	11.2 µM (inactive)	7.8 µM (inactive)	6.27 µM (inactive)	6.47 µM (inactive)	8.51 µM (inactive)	2.82 µM (inactive)	36.9 µM (inactive)	4.58 µM (inactive)	7.57 µM (inactive)	10.7 µM (inactive)	4 µM (inactive)	20.6 µM (inactive)	6 µM (inactive)	6.19 µM (inactive)	> 100 µM (inactive)	10.3 µM (inactive)	8.85 µM (inactive)	11.9 µM (inactive)	15.6 µM (inactive)
